Test results reported in ChEMBL document CHEMBL1201862, “PubChem BioAssay data set” (2004).
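Five concentrations, 48 hours, 96-well plates. Abbreviation: GI50, concentration required for 50% inhibition of growth.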 Calls of active or inactive are those of the source. Rule as the data show it: active = GI50 up to about 1.1 µM and inactive = higher.

Tests used:
Test in all cases: NCI tumour cell line growth inhibition, 48 h
[1] = test system: A498
[2] = test system: A549
[3] = test system: CAKI-1
[4] = test system: COLO 205
[5] = test system: HCC 2998
[6] = test system: HT-29
[7] = test system: LOX IMVI
[8] = test system: Malme-3M
[9] = test system: NCI-H226
[10] = test system: NCI-H23
[11] = test system: RPMI-8226
[12] = test system: SK-MEL-28
[13] = test system: SK-OV-3
[14] = test system: SNB-75
[15] = test system: SW-620
[16] = test system: U-251
[17] = test system: UACC-257
[18] = test system: UACC-62
[19] = test system: CCRF-CEM
[20] = test system: MOLT-4

In the case of `CC(C)c1nccn1Cc1ccc(Cl)cc1Cl`, the GI50 [1] was 55.5 µM (inactive), the GI50 [2] was 34.4 µM (inactive) and the GI50 [3] was 53.7 µM (inactive). The GI50 [4] was 29.2 µM (inactive), the GI50 [5] was 23.4 µM (inactive) and the GI50 [6] was 28.8 µM (inactive). For the same compound, the GI50 [7] was 43.6 µM (inactive), the GI50 [8] was 41.2 µM (inactive) and the GI50 [9] was 22.4 µM (inactive). The GI50 [10] was 27.4 µM (inactive), the GI50 [11] was 16 µM (inactive) and the GI50 [12] was > 100 µM (inactive). For the same compound, the GI50 [13] was 47.9 µM (inactive), the GI50 [14] was 36.5 µM (inactive) and the GI50 [15] was 49.1 µM (inactive). For the same compound, the GI50 [16] was 41.5 µM (inactive), the GI50 [17] was 17.7 µM (inactive) and the GI50 [18] was 43.8 µM (inactive).

With `Cc1ccc(S(=O)(=O)N(c2ccccc2F)C2CCCCC2O)cc1` (centres undefined) the GI50 [1] was 38.1 µM (inactive), the GI50 [2] was 35.2 µM (inactive) and the GI50 [19] was 56.9 µM (inactive). For the same compound, the GI50 [4] was 27.2 µM (inactive), the GI50 [5] was 74.6 µM (inactive) and the GI50 [6] was 43 µM (inactive). For the same compound, the GI50 [7] was 38.8 µM (inactive), the GI50 [8] was 58.7 µM (inactive) and the GI50 [9] was > 100 µM (inactive). The GI50 [10] was 34.4 µM (inactive), the GI50 [11] was 36.9 µM (inactive) and the GI50 [12] was > 100 µM (inactive). For the same compound, the GI50 [13] was 22.3 µM (inactive), the GI50 [14] was 20 µM (inactive) and the GI50 [15] was 64.4 µM (inactive). The GI50 [16] was 46.6 µM (inactive), the GI50 [17] was 0.214 µM (active) and the GI50 [18] was 46.9 µM (inactive).

In the case of `CC1(C)C2CCC1(C)[C@H](O)[C@H]2Nc1cc(C(F)(F)F)cc(C(F)(F)F)c1` (some centres undefined), the GI50 [1] was > 100 µM (inactive), the GI50 [2] was 3.7 µM (inactive) and the GI50 [3] was 3.76 µM (inactive). The GI50 [4] was 1.79 µM (inactive), the GI50 [5] was 3.38 µM (inactive) and the GI50 [6] was 3.32 µM (inactive). For the same compound, the GI50 [7] was 3 µM (inactive), the GI50 [20] was 2.19 µM (inactive) and the GI50 [8] was 3.27 µM (inactive). For the same compound, the GI50 [9] was 6.5 µM (inactive), the GI50 [10] was 2.36 µM (inactive) and the GI50 [11] was 3.01 µM (inactive). For the same compound, the GI50 [12] was 1.74 µM (inactive), the GI50 [13] was 3.88 µM (inactive) and the GI50 [14] was 0.0252 µM (active). For the same compound, the GI50 [15] was 3.36 µM (inactive), the GI50 [16] was 4.15 µM (inactive) and the GI50 [17] was 3.78 µM (inactive). For the same compound, the GI50 [18] was > 100 µM (inactive).

With `CC1=CCC2CC1C(C(=O)c1c[nH]c3ccccc13)=NC2(C)C` (centres undefined) the GI50 [1] was > 100 µM (inactive), the GI50 [2] was 61 µM (inactive) and the GI50 [3] was > 100 µM (inactive). The GI50 [19] was 22.4 µM (inactive), the GI50 [4] was 52.2 µM (inactive) and the GI50 [5] was > 100 µM (inactive). For the same compound, the GI50 [6] was 51.1 µM (inactive), the GI50 [7] was 80.9 µM (inactive) and the GI50 [20] was 22.9 µM (inactive). The GI50 [8] was > 100 µM (inactive), the GI50 [9] was > 100 µM (inactive) and the GI50 [10] was 87.7 µM (inactive). The GI50 [11] was 25.1 µM (inactive), the GI50 [12] was > 100 µM (inactive) and the GI50 [13] was 94.4 µM (inactive). For the same compound, the GI50 [15] was 76 µM (inactive), the GI50 [16] was 34.5 µM (inactive) and the GI50 [17] was 27.4 µM (inactive). The GI50 [18] was 25.2 µM (inactive).

In the case of `NCCCCNCCCNC(=O)c1nc(-c2nc(CCN)sc2Cl)sc1Cl`, the GI50 [1] was > 100 µM (inactive), the GI50 [2] was 44.5 µM (inactive) and the GI50 [3] was > 100 µM (inactive). For the same compound, the GI50 [19] was 89.5 µM (inactive), the GI50 [4] was > 100 µM (inactive) and the GI50 [5] was > 100 µM (inactive). The GI50 [6] was > 100 µM (inactive), the GI50 [20] was > 100 µM (inactive) and the GI50 [8] was 58.6 µM (inactive). For the same compound, the GI50 [9] was > 100 µM (inactive), the GI50 [10] was 37.9 µM (inactive) and the GI50 [11] was 31.3 µM (inactive). The GI50 [12] was 46.5 µM (inactive), the GI50 [13] was > 100 µM (inactive) and the GI50 [14] was 72.9 µM (inactive). For the same compound, the GI50 [15] was 16.7 µM (inactive), the GI50 [16] was > 100 µM (inactive) and the GI50 [17] was > 100 µM (inactive). The GI50 [18] was > 100 µM (inactive).

With `C[C@]12CC[C@H](OC(=O)Cc3ccc(N(CCCl)CCCl)cc3)CC1=CC[C@@H]1[C@@H]2CC[C@]2(C)C(=O)CC[C@@H]12` the GI50 [1] was > 100 µM (inactive), the GI50 [2] was > 100 µM (inactive) and the GI50 [3] was > 100 µM (inactive). The GI50 [4] was > 100 µM (inactive), the GI50 [5] was > 100 µM (inactive) and the GI50 [6] was > 100 µM (inactive). The GI50 [7] was > 100 µM (inactive), the GI50 [20] was > 100 µM (inactive) and the GI50 [8] was > 100 µM (inactive). For the same compound, the GI50 [9] was > 100 µM (inactive), the GI50 [10] was > 100 µM (inactive) and the GI50 [11] was > 100 µM (inactive). For the same compound, the GI50 [12] was > 100 µM (inactive), the GI50 [14] was > 100 µM (inactive) and the GI50 [15] was > 100 µM (inactive). The GI50 [16] was > 100 µM (inactive) and the GI50 [17] was > 100 µM (inactive).

For `Oc1ccc(-c2nc3ccc4ccccc4c3c3c2CCCC3)c(O)c1`, the GI50 [1] was 51.1 µM (inactive), the GI50 [2] was 23.2 µM (inactive) and the GI50 [3] was 42.5 µM (inactive). The GI50 [4] was 11.1 µM (inactive), the GI50 [5] was 36.5 µM (inactive) and the GI50 [6] was 11.9 µM (inactive). The GI50 [7] was 32.7 µM (inactive), the GI50 [20] was > 48.3 µM (inactive) and the GI50 [8] was 19.4 µM (inactive). The GI50 [9] was > 63 µM (inactive), the GI50 [10] was 27.9 µM (inactive) and the GI50 [11] was 9.31 µM (inactive). The GI50 [12] was 19.2 µM (inactive), the GI50 [13] was 48.6 µM (inactive) and the GI50 [14] was 28.7 µM (inactive). For the same compound, the GI50 [15] was 20.4 µM (inactive), the GI50 [16] was 4.1 µM (inactive) and the GI50 [17] was 10.5 µM (inactive). For the same compound, the GI50 [18] was 19.5 µM (inactive).

`O=C(/C=C/c1ccccc1)Oc1cccc(O)c1` was tested, and the GI50 [1] was > 100 µM (inactive), the GI50 [2] was 46 µM (inactive) and the GI50 [3] was 49.1 µM (inactive). For the same compound, the GI50 [4] was 55 µM (inactive), the GI50 [5] was > 100 µM (inactive) and the GI50 [6] was 37.2 µM (inactive). For the same compound, the GI50 [7] was 27.5 µM (inactive), the GI50 [20] was 6.03 µM (inactive) and the GI50 [8] was 19.5 µM (inactive). For the same compound, the GI50 [9] was > 100 µM (inactive), the GI50 [10] was 63.8 µM (inactive) and the GI50 [11] was 9.55 µM (inactive). For the same compound, the GI50 [12] was 23.6 µM (inactive), the GI50 [13] was > 100 µM (inactive) and the GI50 [14] was 65 µM (inactive). The GI50 [15] was 18.3 µM (inactive), the GI50 [16] was 34.3 µM (inactive) and the GI50 [17] was > 100 µM (inactive). The GI50 [18] was > 100 µM (inactive).

`C[C@]12CCC(=O)C=C1CC[C@@H]1C2CC[C@]2(C)NC(=O)C(C#N)CC12` (some centres undefined) was tested, and the GI50 [1] was > 100 µM (inactive), the GI50 [2] was > 100 µM (inactive) and the GI50 [3] was > 100 µM (inactive). For the same compound, the GI50 [19] was > 100 µM (inactive), the GI50 [5] was > 100 µM (inactive) and the GI50 [6] was 30.8 µM (inactive). For the same compound, the GI50 [20] was > 100 µM (inactive), the GI50 [8] was > 100 µM (inactive) and the GI50 [9] was > 100 µM (inactive). The GI50 [10] was > 100 µM (inactive), the GI50 [11] was > 100 µM (inactive) and the GI50 [12] was > 100 µM (inactive). The GI50 [13] was > 100 µM (inactive), the GI50 [14] was > 100 µM (inactive) and the GI50 [15] was > 100 µM (inactive). For the same compound, the GI50 [16] was > 100 µM (inactive), the GI50 [17] was > 100 µM (inactive) and the GI50 [18] was > 100 µM (inactive).

In the case of `CC(=O)OC(C)C(=O)C1c2cccc(O)c2C(=O)c2c(O)cc(C)cc21` (centres undefined), the GI50 [1] was 1.59 µM (inactive), the GI50 [2] was 0.322 µM (active) and the GI50 [3] was 1.71 µM (inactive). The GI50 [19] was 0.711 µM (active), the GI50 [4] was 1.65 µM (inactive) and the GI50 [5] was 0.429 µM (active). The GI50 [6] was 1.66 µM (inactive), the GI50 [7] was 0.483 µM (active) and the GI50 [20] was 3.06 µM (inactive). The GI50 [8] was 0.56 µM (active), the GI50 [9] was 0.319 µM (active) and the GI50 [10] was 0.324 µM (active). For the same compound, the GI50 [11] was 0.991 µM (active), the GI50 [12] was 1.01 µM (active) and the GI50 [13] was 0.546 µM (active). The GI50 [14] was 0.52 µM (active), the GI50 [15] was 0.502 µM (active) and the GI50 [16] was 0.26 µM (active). The GI50 [17] was 0.41 µM (active).

In the case of `O=C(CC/C(C/C(=N/O)c1ccc(F)cc1)=N/O)N(Cc1ccccc1)Cc1ccccc1`, the GI50 [1] was > 100 µM (inactive), the GI50 [2] was > 100 µM (inactive) and the GI50 [3] was > 100 µM (inactive). The GI50 [19] was > 100 µM (inactive), the GI50 [4] was 73.8 µM (inactive) and the GI50 [5] was > 100 µM (inactive). The GI50 [6] was > 100 µM (inactive), the GI50 [7] was > 100 µM (inactive) and the GI50 [20] was > 100 µM (inactive). For the same compound, the GI50 [8] was > 100 µM (inactive), the GI50 [9] was > 100 µM (inactive) and the GI50 [10] was > 100 µM (inactive). For the same compound, the GI50 [11] was > 100 µM (inactive), the GI50 [12] was > 100 µM (inactive) and the GI50 [14] was > 100 µM (inactive). The GI50 [15] was > 100 µM (inactive), the GI50 [16] was > 100 µM (inactive) and the GI50 [17] was > 100 µM (inactive). For the same compound, the GI50 [18] was > 100 µM (inactive).
